The test system of test [1] is HCT-116. In words: Antiproliferative activity against human HCT-116 cells assessed as cell growth inhibition at 10 uM measured after 72 hrs by MTT assay relative to control. The test is classed as functional. The settings on record: read-out: GI.
In test [2] the test system is MCF7. The test is described as follows: Antiproliferative activity against human MCF7 cells assessed as cell growth inhibition measured after 72 hrs by MTT assay. Format: functional.
Test [3] addresses High affinity nerve growth factor receptor (Homo sapiens, UniProt P04629). The test is described as follows: Inhibition of human Trk-A using myelin basic protein as substrate incubated for 40 mins in presence of [gamma33P]ATP by scintillation counting method.
The target of test [4] is Fibroblast growth factor receptor 2 (Homo sapiens) (UniProt P21802). The test is described as follows: Inhibition of human FGFR2 at 10 uM using myelin basic protein as substrate incubated for 40 mins in presence of [gamma33P]ATP by scintillation counting method relative to control.
Test [5] deals with HCT-116. The test is described as follows: Antiproliferative activity against human HCT-116 cells assessed as cell growth inhibition measured after 72 hrs by MTT assay. The test is classed as functional.
The test system of test [6] is SK-BR-3. In words: Antiproliferative activity against human SK-BR-3 cells assessed as cell growth inhibition measured after 72 hrs by MTT assay. Format: functional.
Test [7] concerns the target Fibroblast growth factor receptor 1 (Homo sapiens) (UniProt P11362). In words: Inhibition of human FGFR1 at 10 uM using myelin basic protein as substrate incubated for 40 mins in presence of [gamma33P]ATP by scintillation counting method relative to control.
Test [8] deals with SK-BR-3. The test is described as follows: Antiproliferative activity against human SK-BR-3 cells assessed as cell growth inhibition at 10 uM measured after 72 hrs by MTT assay relative to control. The test is classed as functional. The settings on record: read-out: GI.
In test [9] the test system is MCF7. The test is described as follows: Antiproliferative activity against human MCF7 cells assessed as cell growth inhibition at 10 uM measured after 72 hrs by MTT assay relative to control. The test is classed as functional. The conditions noted are these: read-out: GI.

The text below walks through data of ChEMBL document CHEMBL4673219, “Novel 5,6-disubstituted pyrrolo[2,3-d]pyrimidine derivatives as broad spectrum antiproliferative agents: Synthesis, cell based assays, kinase profile and molecular docking study” (Bioorg Med Chem, 2018).

Structures are written as SMILES.

Fibroblast growth factor receptor 1 (Homo sapiens), sequence (P11362 22-822 limits assumed): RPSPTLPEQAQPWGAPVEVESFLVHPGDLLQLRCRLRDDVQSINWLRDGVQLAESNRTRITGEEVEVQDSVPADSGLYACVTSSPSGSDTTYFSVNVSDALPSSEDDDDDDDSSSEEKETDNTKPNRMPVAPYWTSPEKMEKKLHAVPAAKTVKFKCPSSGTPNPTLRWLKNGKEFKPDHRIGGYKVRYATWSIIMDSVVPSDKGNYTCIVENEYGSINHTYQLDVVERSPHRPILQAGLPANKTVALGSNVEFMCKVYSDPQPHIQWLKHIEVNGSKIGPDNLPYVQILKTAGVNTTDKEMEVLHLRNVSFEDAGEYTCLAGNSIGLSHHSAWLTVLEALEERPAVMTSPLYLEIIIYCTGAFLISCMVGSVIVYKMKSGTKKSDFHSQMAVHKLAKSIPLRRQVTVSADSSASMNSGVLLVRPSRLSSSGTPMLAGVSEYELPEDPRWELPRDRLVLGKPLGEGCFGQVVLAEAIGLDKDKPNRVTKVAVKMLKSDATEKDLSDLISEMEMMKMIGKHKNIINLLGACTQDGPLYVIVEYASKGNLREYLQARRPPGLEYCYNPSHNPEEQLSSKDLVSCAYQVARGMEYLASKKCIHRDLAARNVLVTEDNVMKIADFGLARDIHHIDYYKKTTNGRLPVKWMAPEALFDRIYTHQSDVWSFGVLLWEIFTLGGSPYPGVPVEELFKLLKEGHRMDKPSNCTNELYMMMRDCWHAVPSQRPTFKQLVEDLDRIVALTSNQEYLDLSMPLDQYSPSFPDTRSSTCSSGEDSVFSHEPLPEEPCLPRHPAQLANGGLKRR
High affinity nerve growth factor receptor, sequence (P04629 whole entry): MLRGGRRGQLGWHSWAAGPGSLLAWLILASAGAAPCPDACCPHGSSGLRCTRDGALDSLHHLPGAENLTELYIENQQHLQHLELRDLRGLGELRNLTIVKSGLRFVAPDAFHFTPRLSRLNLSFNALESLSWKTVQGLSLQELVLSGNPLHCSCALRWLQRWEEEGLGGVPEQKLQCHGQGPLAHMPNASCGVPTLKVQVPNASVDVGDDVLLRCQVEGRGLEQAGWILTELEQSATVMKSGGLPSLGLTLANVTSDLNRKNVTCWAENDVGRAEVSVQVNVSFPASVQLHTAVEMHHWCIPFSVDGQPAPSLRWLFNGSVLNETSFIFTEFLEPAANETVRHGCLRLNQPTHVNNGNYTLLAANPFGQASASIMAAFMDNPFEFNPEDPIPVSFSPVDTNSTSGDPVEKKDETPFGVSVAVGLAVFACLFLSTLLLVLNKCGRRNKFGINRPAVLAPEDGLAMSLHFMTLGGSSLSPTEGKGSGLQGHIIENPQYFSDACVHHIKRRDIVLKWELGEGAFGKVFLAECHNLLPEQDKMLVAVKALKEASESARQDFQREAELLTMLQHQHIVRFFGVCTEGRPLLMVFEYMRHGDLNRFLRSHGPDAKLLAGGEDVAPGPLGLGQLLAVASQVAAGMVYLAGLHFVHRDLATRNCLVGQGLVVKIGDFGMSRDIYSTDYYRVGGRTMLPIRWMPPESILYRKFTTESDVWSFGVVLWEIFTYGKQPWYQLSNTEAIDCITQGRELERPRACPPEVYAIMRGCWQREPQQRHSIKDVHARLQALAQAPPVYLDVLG
Fibroblast growth factor receptor 2 (Homo sapiens), sequence (P21802 22-821 limits assumed): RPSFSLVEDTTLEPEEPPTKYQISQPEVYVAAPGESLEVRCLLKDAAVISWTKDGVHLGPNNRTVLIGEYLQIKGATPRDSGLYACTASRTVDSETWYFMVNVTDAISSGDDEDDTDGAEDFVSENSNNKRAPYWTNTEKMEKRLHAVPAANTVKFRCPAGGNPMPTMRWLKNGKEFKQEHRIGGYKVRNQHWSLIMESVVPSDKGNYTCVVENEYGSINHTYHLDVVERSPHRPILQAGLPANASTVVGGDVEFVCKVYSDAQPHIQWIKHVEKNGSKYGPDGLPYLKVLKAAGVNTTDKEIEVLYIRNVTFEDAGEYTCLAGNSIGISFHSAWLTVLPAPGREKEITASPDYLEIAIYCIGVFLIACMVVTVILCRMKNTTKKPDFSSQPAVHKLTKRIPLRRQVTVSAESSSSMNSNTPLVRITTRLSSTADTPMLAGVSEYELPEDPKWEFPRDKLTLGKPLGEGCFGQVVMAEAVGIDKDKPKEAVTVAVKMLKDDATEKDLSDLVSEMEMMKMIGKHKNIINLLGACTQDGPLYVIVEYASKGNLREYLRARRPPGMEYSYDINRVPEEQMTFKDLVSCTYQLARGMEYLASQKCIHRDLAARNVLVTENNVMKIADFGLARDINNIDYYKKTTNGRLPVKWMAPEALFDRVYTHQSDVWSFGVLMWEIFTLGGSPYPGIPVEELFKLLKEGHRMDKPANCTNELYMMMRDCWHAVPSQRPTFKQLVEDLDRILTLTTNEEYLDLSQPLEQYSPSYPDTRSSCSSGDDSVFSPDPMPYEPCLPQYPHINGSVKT

With `CCCCCCCC(=O)Nc1nc2[nH]c(CN3CCN(Cc4ccccc4F)CC3)c(CN3CCN(Cc4ccccc4F)CC3)c2c(=O)[nH]1`, the inhibition of growth at 10 µM in [1] is 97.3%; in test [8] it was 93.4%; in test [9], 96.1%. Further, the GI50 stood at 4.2 µM in [2], 1.89 µM in test [5] and 3.73 µM in test [6]. In addition, the IC50 in test [3] was 3.15 µM. The results for the inhibition in test [4] and in [7] were 23% and 59.8%, respectively.

Turning to `CCCCCCCC(=O)Nc1nc2[nH]cc(CN3CCN(Cc4cccc(F)c4)CC3)c2c(=O)[nH]1`, the inhibition of growth at 10 µM came out at 92.8% in [1], 91.2% in test [8] and 85.7% in [9]. In addition, the results for the GI50 in test [2], in test [5] and in test [6] were 7.84 µM, 5.34 µM and 5.58 µM, respectively.

On to `CCCCCCCC(=O)Nc1nc2[nH]c(CN3CCN(Cc4ccccc4)CC3)c(CN3CCN(Cc4ccccc4)CC3)c2c(=O)[nH]1`, for which the inhibition of growth at 10 µM in test [1] was found to be 97%; in test [8] it was 93.4%; in [9] it was 96.6%. The GI50 in test [2] amounted to 2.78 µM; in test [5], 4.09 µM; in test [6], 3.64 µM. Further, the IC50 in test [3] was determined as 2.29 µM. Further, the inhibition in [4] stood at 24%; in test [7] it was 47.1%.

Turning to `CCCCCCCC(=O)Nc1nc2[nH]c(CN3CCN(Cc4ccc(F)cc4)CC3)c(CN3CCN(Cc4ccc(F)cc4)CC3)c2c(=O)[nH]1`, the inhibition of growth at 10 µM in test [1] was found to be 97.1%; in [8], 93.5%; in [9], 97.2%. Also, the GI50 in test [2] is 1.75 µM; in test [5], 4.13 µM; in test [6], 3.6 µM. Also, the concentration for half-maximal inhibition (IC50) in [3] stood at 2.76 µM. For the same compound, the inhibition in test [4] is 14.7%; in [7], 50.5%.
